Results: US9642874B2, “Compositions of selenoorganic compounds and methods of use thereof” (Alltech, Inc., priority 2014, dated 2017)

Tests used:
Assay type in all cases: cell-based
G6pc = G6pc mRNA expression (QRT-PCR) in primary mouse hepatocytes
Description: (§1) The overnight-acclimated hepatocytes were washed twice with PBS (to remove any residual FBS and other additives in the TRL hepatocyte maintenance medium, pretreated with control (water) or selenium Compounds CDE (150 or 300 ppb of each selenium compound) in DMEM/F12 media supplemented with 10% fetal bovine serum (FBS) for 24 hr. These cells were then washed twice with PBS and incubated with the same dose of selenium Compounds CDE (150 or 300 ppb) in the presence or absence of insulin (10 or 100 nM, Sigma), 0.1 mM 8-CPT (Sigma) or 0.5 μM Dex (Sigma) in serum-free and glucose-free DMEM media (Invitrogen) supplemented with 20 mM lactose (Sigma) and 2 mM pyruvate (Sigma) and 15 mM HEPES (Sigma) for another 6 hours. After treatments, cell media were collected and subjected to glucose assay and toxicological studies of lactate dehydrogenase (LDH) and cells were collected for RNA and protein analysis.
Total RNA from these cells was isolated using Trizol (Invitrogen) according to the Manufacturer's protocol and then incubated with DNase I to remove any potential contaminated genomic DNA. Then RNA samples were subjected to real-time PCR analysis using the Applied-Bioscience's RT kit and predesigned Taqman probes (Invitrogen), as described previously (Lan et al EMBO J 2003). Three to four samples were analyzed in each treatment group. […]

[1] = system: primary mouse hepatocytes; assay: Toxicological study: LDH level in culture media of primary mouse hepatocytes; details: Compounds CDE (150, 300 ppb), insulin (10, 100 nM) or both; 24 hours serum-containing + 6 hours
Description: as §1, with “After treatments, cell media were collected and subjected to glucose assay and toxicological studies of lactate dehydrogenase (LDH) and cells were collected for RNA and protein analysis.” left out
Similar to the above glucose assay, cell culture media from the above described treatments were collected and centrifuged at 300×g for 5 minutes to remove any potential dislodged hepatocytes and subjected to LDH analysis using a […] (Abcam) according to the manufacturer protocol. In brief, the absorbance at OD450 nm in LDH standards and the culture medium samples after incubation with LDH substrates for every two minutes up to 40 minutes were determined by the Bio-Tek microplate reader. […]

AKT = assay: Western blot of phosphorylated Akt in primary mouse hepatocytes; details: 100 nM insulin 6 hours, or Compounds CDE both doses 24 hours + 6 hours
Description: as §1, with “After treatments, cell media were collected and subjected to glucose assay and toxicological studies of lactate dehydrogenase (LDH) and cells were collected for RNA and protein analysis.” left out
After the above described treatments, primary mouse hepatocytes were rinsed with ice-cold PBS and lysed in the ice-cold RIPA buffer containing complete proteinase and phosphatase inhibitors (Thermo-Fisher Scientific, Waltham, Mass.) on ice for 30 min Cell lysates were collected using a cell scraper and transfer pipette and then centrifuged at 12000×g for 30 min at 4° C. to remove the DNA pellet and obtain the protein extract. Protein levels in the supernatant of these cell lysates were determined using the Pierce Micro-BCA protein assay kit (Thermo Scientific-Piece Biotechnology, Rockford, Ill.) according to the manufacturer's protocol. […]

Substance: insulin: insulin (10 or 100 nM, Sigma) used as comparator and cotreatment
- 8-CPT/Dex-induced G6pc expression (G6pc; insulin 10 and 100 nM, vs 8-CPT/Dex group): significantly decreased 8-CPT/Dex-induced G6pc expression
- G6pc expression (G6pc; insulin alone (10 and 100 nM), 6 hours): significantly inhibited G6pc expression
- LDH levels in the media [1]: did not cause a significant increase of LDH levels
- pAktS473 protein level (in words) (AKT): significant increase
